In patent publication US11642366B2, “Methods for preventing a serious health consequence and/or tissue damage after exposure to ionizing radiation and/or chemotherapy” (GLYCOMIRA THERAPEUTICS, INC., priority 2018, dated 2023):

How the values were obtained:
[1] = test system: ROM (radiation induced oral mucositis) in the tongue; assay: Study (1): single dose x-ray irradiation induced ROM, necropsy and histology of the tongue; format: in vivo, mouse (BDF1 male); details: 30 mg/kg SQ once daily day -2 to 7
Source text: Modified hyaluronan (referred to herein as GM-1111) used to treat the animals is a sulfated hyaluronan methylated at the primary C-6 hydroxyl position of an N-acetyl-glucosamine residue and having a molecular weight of approximately 5.5 kDa.
Approximately 7-8 weeks of old male BDF1 (B6D2F1) mice were purchased from Charles River Laboratories (MA). These animals were housed in a room with fully controlled environment (temperature, humidity, and light/dark cycle). The feed and water were freely accessible to all animals throughout the entire study period. All animals were acclimatized for one week prior to the irradiation and they were approximately 8-10 weeks old at the time of the study. The experimental protocol (16-07008) was approved by the University of Utah Institutional Animal Care and Use Committee (IACUC). […]
(§1) Body weights of the animals were measured every other day from 2 days prior to the first irradiation day (day 0). Clinical signs were monitored every day during the entire experimental period. […]
Histological observations were graded for each category and the sum of these grades was used to designate the severity of each sample. The resulting severity scores from all irradiation groups were analyzed with Kruskal-Wallis test followed by Dunnett-type multiple comparison test using nparcomp package. […]

[2] = test system: myeloperoxidase (MPO); assay: Study (1): tissue concentrations of myeloperoxidase (MPO) in tongue homogenate by ELISA; format: in vivo, mouse (BDF1 male); details: 30 mg/kg SQ once daily day -2 to 7; 20 Gy; day 8; vehicle/irradiated 50%
Source text: Prior to the x-ray irradiation, all animals except the healthy control group were gently guided into a restrainer for short durations. This behavioral training was held once daily for two days and it was designed to reduce potential stresses on the animals during the once daily irradiation session. For head-only irradiation, the restrainers containing the animals were shielded with a lead block that had rectangular holes to expose the head. X-rays were generated by RS2000 Biological Research Irradiator (Rad Source Technologies, GA) with parameters set as 160 kV/25 mA. For study (1), the animals were divided into 4 groups (10 mice for each group)—vehicle (phosphate buffered saline) treated healthy, vehicle treated ROM, GM-1111 treated ROM, and HA treated ROM. […]
as §1
All tongue samples were thawed on ice prior to homogenization. […] The total protein concentration of the supernatant was measured for each sample using the Pierce™ Protein Assay kit. Tissue concentrations of IL-6 and myeloperoxidase (MPO) were then determined with commercially available ELISA kits: IL-6 (BioLegend, CA) and MPO (R&D Systems, MN). […]

Hyaluronic acid [HA]
Overall effect against ROM (necropsy, MPO, histology) ([1]; 20 Gy): did not show any measurable therapeutic benefits
Ulcerative lesions in the tongue at necropsy (Toluidine Blue staining) ([1]; 20 Gy head-only x-ray on day 0, necropsy day 8): severe ulcerative lesions in the tongue similar to the vehicle treated animals
Animals with higher than normal range of MPO in the tongue [2]: about 70%
